# Values quoted from earlier work, collected in paper PMC10976394 (ACS Omega, 2024).
# Conditions: human; cited from earlier work
smiles,measurement,value
CC[C@@H]1CN(C(=O)NCC(F)(F)F)C[C@@H]1c1cnc2cnc3[nH]ccc3n12 [upadacitinib],clearance behavior under the arthritic condition,reduced the clearance behavior
